Assay results as given in patent US20090042957A1, “Substituted Oxyarenes” (Bayer CropScience AG, priority 2004, published 2009).

What was measured:
Spodoptera frugiperda = Spodoptera frugiperda test (spray treatment); type: in vivo; details: for Kill rate in % after 7d: active compound concentration 500 g/ha, sprayed corn leaf disks (Zea mays), caterpillars
Description: Spodoptera frugiperda Test (Spray Treatment) [table] To produce a suitable preparation of active compound, 1 part by weight of active compound is mixed with the stated amounts of solvents and emulsifier, and the concentrate is diluted with emulsifier-containing water to the desired concentration. Disks of corn leaves (Zea mays) are sprayed with an active compound preparation of the desired concentration and, after drying, populated with caterpillars of the armyworm (Spodoptera frugiperda). After the desired period of time, the effect in % is determined. 100% means that all caterpillars have been killed; 0% means that none of the caterpillars have been killed.

Tetranychus urticae = test: Tetranychus test; OP-resistant (TETRUR spray treatment); type: in vivo; details: active compound concentration 100 g/ha, sprayed bean leaf disks (Phaseolus vulgaris), all stages of spider mite
Description: Tetranychus Test; OP-Resistant (TETRUR Spray Treatment)
To produce a suitable preparation of active compound, 1 part by weight of active compound is mixed with the stated amounts of solvents and emulsifier, and the concentrate is diluted with emulsifier-containing water to the desired concentration.
Disks of bean leaves (Phaseolus vulgaris) which are infested by all stages of the greenhouse red spider mite (Tetranychus urticae) are sprayed with an active compound preparation of the desired concentration.
After the desired period of time, the effect in % is determined. 100% means that all spider mites have been killed; 0% means that none of the spider mites have been killed.

log P (pH 2.3) = type: physicochemical

logP (log P (pH 2.3))	SMILES	Kill rate in % after 7d (Spodoptera frugiperda) [%]	also measured
–	COc1c(Cl)cc(OCC=C(Cl)Cl)cc1C1=NOC(CCCOc2ccc(N3CCCC3=O)cc2)C1 (stereo not shown)	100	–
–	COc1c(Cl)cc(OCC=C(Cl)Cl)cc1C1=NOC(CCCOc2cccc3c2OC(C)(C)C3)C1 (stereo not shown) [drawing 46]	–	Kill rate in % after 7d (Tetranychus urticae): 90%
–	CCn1nnc(-c2ccc(OCCCC3CC(c4cc(OCC=C(Cl)Cl)cc(Cl)c4OC)=NO3)cc2)n1 (stereo not shown)	100	–
5.67	COc1c(Cl)cc(OCC=C(Cl)Cl)cc1-c1nnc(CCCOCc2ccccc2)s1 [2-(3-benzyloxypropyl)-5-[3-chloro-5-(3,3-dichloroallyloxy)-2-methoxyphenyl]-[1,3,4]thiadiazole]	–	–
3.79	COc1c(Cl)cc(OCC=C(Cl)Cl)cc1C(=O)NNC(=O)CCCOCc1ccccc1 [3-chloro-5-(3,3-dichloroallyloxy)-2-methoxybenzoic acid N′-(4-benzyloxybutyryl)hydrazide]	–	–
–	CO/N=C/c1ccc(OCCCC2CC(c3cc(OCC=C(Cl)Cl)cc(Cl)c3OC)=NO2)cc1 (stereo not shown)	100	–
–	COc1c(Cl)cc(OCC=C(Cl)Cl)cc1C1=NOC(CCCOc2ccc3c(c2)CCCC3=O)C1 (stereo not shown)	100	–
–	CCn1nnc(-c2ccc(OCCCC3CC(c4cc(OCC=C(Cl)Cl)cc(Cl)c4OC)=NO3)cc2)n1 (racemic) [Example I-1]	–	activity in Spodoptera frugiperda test (Spodoptera frugiperda; spray treatment, result in words): good activity
2.05	COc1c(Cl)cc(OCC=C(Cl)Cl)cc1C1=NC(CO)CO1 (stereo not shown) [{2-[3-chloro-5-(3,3-dichloroallyloxy)-2-methoxyphenyl]-4,5-dihydrooxazol-4-yl}methanol]	–	–
–	COc1c(Cl)cc(OCC=C(Cl)Cl)cc1C1=NOC(CCCOc2cccc3c2OC(C)(C)C3)C1 (stereo not shown) [drawing 44]	100	–
